In ChEMBL document CHEMBL1201862, “PubChem BioAssay data set” (2004):
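1) Cells in 96-well plates. 2) Compound, 48 h, 5 concentrations. 3) Linear interpolation between surrounding doses. 4) Unreached endpoint = highest concentration. Abbreviation: GI50, concentration required for 50% inhibition of growth.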 Activity calls are given as the source filed them. Cut-off read from the data, not from the text of the source: active = GI50 up to about 1.1 µM and inactive = higher.

How the values were obtained:
Assay in all cases: DTP human tumour cell line panel, 48 h
NCI-H226 = tested on: NCI-H226
SK-OV-3 = tested on: SK-OV-3
Hs-578T = tested on: Hs-578T
MDA-N = tested on: MDA-N
U-251 = tested on: U-251
NCI-H460 = tested on: NCI-H460
SK-MEL-28 = tested on: SK-MEL-28
SF-539 = tested on: SF-539
TK-10 = tested on: TK-10
SNB-19 = tested on: SNB-19
OVCAR-8 = tested on: OVCAR-8
M14 = tested on: M14
PC-3 = tested on: PC-3
Malme-3M = tested on: Malme-3M
A498 = tested on: A498
HOP-92 = tested on: HOP-92
RPMI-8226 = tested on: RPMI-8226
OVCAR-5 = tested on: OVCAR-5
K562 = tested on: K562
RXF 393 = tested on: RXF 393

Measured: GI50

Fc1ccc(C(OCCN2CC3CC2CN3CCCc2ccccc2)c2ccc(F)cc2)cc1 (centres undefined)
inactive: NCI-H226 7.23 µM | SK-OV-3 15 µM | Hs-578T 10.1 µM | MDA-N 6.27 µM | U-251 6.71 µM | NCI-H460 4.48 µM | SK-MEL-28 2.96 µM | SF-539 2.37 µM | TK-10 11.2 µM | SNB-19 13.3 µM | OVCAR-8 3.23 µM | M14 2.02 µM | PC-3 5.98 µM | Malme-3M 2.93 µM | A498 4.98 µM | HOP-92 11.9 µM | RPMI-8226 2.88 µM | OVCAR-5 11.3 µM | K562 3.11 µM

CCn1c(CCCc2nc3c(=O)n(C)c(=O)n(C)c3[nH]2)nc2c1c(=O)n(C)c(=O)n2C
inactive: NCI-H226 14.8 µM | SK-OV-3 > 100 µM | Hs-578T > 100 µM | MDA-N > 100 µM | U-251 > 100 µM | NCI-H460 > 100 µM | SK-MEL-28 > 100 µM | SF-539 14.9 µM | TK-10 > 100 µM | SNB-19 > 100 µM | OVCAR-8 > 100 µM | M14 > 100 µM | RXF 393 > 100 µM | PC-3 > 100 µM | Malme-3M > 100 µM | A498 > 100 µM | RPMI-8226 > 100 µM | OVCAR-5 > 100 µM | K562 75.7 µM

CCN1CC2=C(N=c3s/c(=C\c4ccc(Cl)cc4)c(=O)n3C2c2ccc(Cl)cc2)/C(=C/c2ccc(Cl)cc2)C1 (centres undefined)
inactive: NCI-H226 37 µM | SK-OV-3 16.8 µM | Hs-578T 25.8 µM | MDA-N > 100 µM | U-251 20.8 µM | NCI-H460 > 100 µM | SK-MEL-28 > 100 µM | TK-10 18.9 µM | SNB-19 44.4 µM | OVCAR-8 > 100 µM | M14 73.1 µM | RXF 393 2.47 µM | PC-3 > 100 µM | Malme-3M > 100 µM | A498 24.6 µM | RPMI-8226 84.9 µM | OVCAR-5 > 100 µM | K562 > 100 µM

COC(=O)C1(Cc2ccccc2)Cc2ccccc2C1O (centres undefined)
inactive: NCI-H226 > 100 µM | SK-OV-3 > 100 µM | Hs-578T 55.1 µM | MDA-N > 100 µM | U-251 > 100 µM | NCI-H460 > 100 µM | SK-MEL-28 > 100 µM | SF-539 > 100 µM | TK-10 95.9 µM | OVCAR-8 > 100 µM | RXF 393 50.2 µM | PC-3 > 100 µM | Malme-3M > 100 µM | A498 > 100 µM | RPMI-8226 > 100 µM | OVCAR-5 > 100 µM | K562 > 100 µM

O=C(O)C1C2CCC(O2)C1C(=O)Nc1cccc2cccnc12 (centres undefined)
inactive: SK-OV-3 > 100 µM | Hs-578T 93.5 µM | MDA-N > 100 µM | U-251 > 100 µM | NCI-H460 55.5 µM | SK-MEL-28 > 100 µM | TK-10 > 100 µM | SNB-19 > 100 µM | M14 > 100 µM | RXF 393 > 100 µM | PC-3 > 100 µM | Malme-3M > 100 µM | A498 > 100 µM | RPMI-8226 > 100 µM | OVCAR-5 > 100 µM | K562 > 100 µM

N/N=C1\CCCc2c1no[n+]2[O-]
inactive: NCI-H226 > 100 µM | SK-OV-3 > 100 µM | Hs-578T > 100 µM | MDA-N > 100 µM | U-251 > 100 µM | NCI-H460 > 100 µM | SK-MEL-28 > 100 µM | SF-539 > 100 µM | TK-10 > 100 µM | SNB-19 > 100 µM | OVCAR-8 > 100 µM | M14 > 100 µM | RXF 393 > 100 µM | PC-3 > 100 µM | Malme-3M > 100 µM | A498 > 100 µM | RPMI-8226 > 100 µM | OVCAR-5 > 100 µM | K562 > 100 µM

COc1ccc(/N=N/C(=N/NC(=O)c2ccccc2)c2ccc(N(CCC#N)CCC#N)cc2C)cc1
inactive: NCI-H226 43.8 µM | SK-OV-3 75.3 µM | Hs-578T 23.4 µM | MDA-N 4.7 µM | U-251 60.5 µM | NCI-H460 23.1 µM | SF-539 19.3 µM | TK-10 > 100 µM | SNB-19 50.9 µM | OVCAR-8 51.8 µM | M14 50.5 µM | RXF 393 34.8 µM | PC-3 19.1 µM | Malme-3M 48 µM | A498 25.6 µM | RPMI-8226 > 100 µM | OVCAR-5 > 100 µM | K562 19.5 µM

NNc1ncnc2cccc(Cl)c12
inactive: NCI-H226 > 100 µM | SK-OV-3 > 100 µM | Hs-578T > 100 µM | MDA-N > 100 µM | U-251 > 100 µM | NCI-H460 > 100 µM | SK-MEL-28 > 100 µM | SF-539 > 100 µM | TK-10 > 100 µM | SNB-19 > 100 µM | OVCAR-8 > 100 µM | M14 > 100 µM | RXF 393 > 100 µM | PC-3 > 100 µM | Malme-3M 2.02 µM | A498 > 100 µM | OVCAR-5 > 100 µM | K562 > 100 µM
